Assays:
[1] = system: StAR, Cyp11a1, 3β-Hsd2, Cyp11b1, Cyp11b2; experiment: mRNA expression of StAR and steroidogenic enzymes upon FADS2 inhibition (qPCR); format: cell-based; settings: upon FADS2 inhibition (SC-26196)
Description: Adrenal glands or adrenal corteces were isolated from WT C57BL/6J mice, cleaned from the surrounding fat tissue and incubated in collagenase buffer (1.6 mg/ml collagenase type I, 1.6 mg/ml BSA) for 45 min at 37 °C, while shaking at 900 rpm. Dissociated cells were passed through 22 G needle and a 100 µm cell strainer and centrifuged at 300 × g for 5 min at 4 °C. Cells of a pool from two adrenals of each mouse were distributed in four 0.2 % gelatin-precoated wells of a 96-well plate in DMEM/F12 supplemented with 1 % FBS, 50 U/mL penicillin and 50 µg/mL streptomycin. Two hours after seeding 10 µM SC-26196 (Tocris, Wiesbaden-Nordenstadt, Germany) or same amount of carrier (DMSO) were added without changing the medium. In some experiments medium was additionally supplemented with 150 µM ARA (Sigma Aldrich, Germany) or same amount of solvent (endotoxin-free water). […]
RNA was isolated from frozen tissues with the TRI Reagent (MRC, Cincinnati, USA) after mechanical tissue disruption or from cells with the RNeasy Mini Kit (Qiagen, Düsseldorf, Germany) according to manufacturer's instructions. […] Reverse transcription was performed with the iScript cDNA Synthesis kit (Biorad, Munich, Germany) and cDNA was analyzed by qPCR using the SsoFast Eva Green Supermix (Bio-Rad, Munich, Germany), a CFX384 real-time System C1000 Thermal Cycler (Bio-Rad) and the Bio-Rad CFX Manager 3.1 software.

[2] = system: primary adrenal cell cultures; experiment: Steroid hormone production (LC-MS/MS) in primary adrenal cell cultures treated with SC-26196, with or without ACTH or ARA; format: cell-based, WT C57BL/6J mice
Description: Adrenal glands or adrenal corteces were isolated from WT C57BL/6J mice, cleaned from the surrounding fat tissue and incubated in collagenase buffer (1.6 mg/ml collagenase type I, 1.6 mg/ml BSA) for 45 min at 37 °C, while shaking at 900 rpm. Dissociated cells were passed through 22 G needle and a 100 µm cell strainer and centrifuged at 300 × g for 5 min at 4 °C. Cells of a pool from two adrenals of each mouse were distributed in four 0.2 % gelatin-precoated wells of a 96-well plate in DMEM/F12 supplemented with 1 % FBS, 50 U/mL penicillin and 50 µg/mL streptomycin. Two hours after seeding 10 µM SC-26196 (Tocris, Wiesbaden-Nordenstadt, Germany) or same amount of carrier (DMSO) were added without changing the medium. In some experiments medium was additionally supplemented with 150 µM ARA (Sigma Aldrich, Germany) or same amount of solvent (endotoxin-free water). When induction of steroidogenesis was required, the medium was changed 18 h after treatment and the cells were incubated with or without 10 ng/mL ACTH for 60 min in the presence of either 10 µM SC-26196 or DMSO. Supernatants were kept for steroid hormone measurement and cell lysates were collected for transcriptional analysis. In some experiments, primary CD31-CD45- adrenocortical cells were treated or not for 18 h with 66 µM EPA (Sigma-Aldrich). Steroid hormones in plasma and cell culture supernatants were analyzed by LC-MS/MS as previously described (71). Fifty to hundred µL plasma or cell culture supernatants were extracted by solid phase extraction using positive pressure, followed by a dry-down under gentle stream of nitrogen. Residues were reconstituted in 100 µL of the initial LC mobile phase and 10 µL were injected for detection by the triple quadrupole mass spectrometer in multiple reaction-monitoring scan mode using positive electrospray ionization. Quantification of steroid concentrations was done by comparisons of ratios of analyte peak areas to respective peak areas of stable isotope labeled internal standards obtained in samples to those of calibrators.

[3] = SC-26196 10 µM 18 h, then ACTH 10 ng/mL for 1 h, n=12

- mRNA expression of StAR or steroidogenic enzymes (Cyp11a1, 3β-Hsd2, Cyp11b1, Cyp11b2) [1]: increased
Structure (SMILES): N#CC(CCCN1CCN(/N=C/c2cccnc2)CC1)(c1ccccc1)c1ccccc1 [SC-26196]
- 11-deoxycorticosterone production [2, 3]: abolished
- aldosterone production [2, 3]: abolished
- corticosterone production [2, 3]: abolished
- progesterone production [2, 3]: abolished
- cell viability ([2]; SC-26196-treated primary adrenal cell cultures, data not shown): without affecting cell viability

Source: patent EP4458352A1, “EICOSAPENTAENOIC ACID ESTER DERIVATIVES FOR THE TREATMENT OF OBESITY” (Technische Universität Dresden, priority 2023, dated 2024)
